The values that follow come from patent US20250170246A1 (priority 2022, published 2025).

“Also recorded” adds a separate entry of the source.

In data set [1] the test system is SARS CoV-2 (WA1 strain). The class given is in vivo, K18-hACE2-Tg mice.
The conditions of data set [2]: ultimately excreted in expired CO2 and via urine; cited from earlier work.
The conditions of data set [3]: multiple human clinical trials; cited from earlier work.
For data set [4] the following is noted: administered parenterally; cited from earlier work.
The next data set relates to influenza. In words: Antiviral effect against influenza.
For data set [5], the system named is SARS CoV-2 (WA1 strain). In words: SARS CoV-2-infected human precision-cut lung slices, IL-8 in culture supernatants. Particulars: 100 μM CDP-choline added daily, 4×10^5 TCID50 SARS CoV-2 WA1, 2 and 3 dpi, vs. saline. The class given is cell-based. The text has this: CDP-choline reduces SARS CoV-2-induced inflammation in vitro.
The conditions of data set [6]: cited from earlier work.
Where [7] appears, read: male K18-hACE2-Tg mice, 5 mg/kg i.p. daily, 4 dpi, relative to infected saline-treated mice.
The mark [8] stands for this setting: male K18-hACE2-Tg mice, 10^5 TCID50 SARS CoV-2 WA1, 5 mg/kg i.p. daily 1-3 dpi, read at 4 dpi.

In the case of `C[N+](C)(C)CCOP(=O)(O)OP(=O)(O)OC[C@H]1O[C@@H](n2ccc(N)nc2=O)C(O)C1O` (stereo partly shown) [CDP-choline, Cytidine diphosphate-choline], the “reduction of whole lung ccl-3/mip-1a gene expression” value in the data set with SARS CoV-2 (WA1 strain) [1] (CoV-2-infected male K18-hACE2-Tg mice) is recorded as more than 5 fold. Besides, in the data set on SARS CoV-2 (WA1 strain) [1] (setting [7]), the “reduction of whole lung il-6 gene expression” value is listed as more than 5 fold and the “reduction of whole lung kc/cxcl-1 gene expression” value is listed as more than 5 fold. In addition, the “SARS CoV-2 replication in the lungs (in words)” value with SARS CoV-2 (WA1 strain) [1] (male K18-hACE2-Tg mice, 5 mg/kg i.p. daily, 4 dpi, vs. saline, 5 mg/kg) is listed as “significantly reduces; also recorded: significantly decreased”. In the data set with SARS CoV-2 (WA1 strain) [1] (setting [8]), the “SARS CoV-2-induced bradycardia (heart rate)” value is recorded as “prevents development; also recorded: completely prevented; also recorded: attenuated” and the “SARS CoV-2-induced hypoxemia (carotid arterial % O2 saturation, SaO2)” value was “prevents development; also recorded: completely prevented; also recorded: reversed”. In addition, the “reduction of viral replication” value in the data set with SARS CoV-2 (WA1 strain) [1] (male K18-hACE2-Tg mice, daily post-infection CDP-choline) was determined as 0.5 logs. In addition, the “metabolism of CDP-choline not incorporated into phospholipids” value in data set [2] is “rapidly metabolized into cytidine and choline”. Moreover, in data set [3], the “safety in human clinical trials” value is given as “safe”. Further, in data set [4], the bioavailability result is recorded as “excellent”. Moreover, in the data set on influenza, the “antiviral effect against influenza” value was “no such antiviral effect”. In addition, the “production of IL-8 by SARS CoV-2-infected human precision-cut lung slices” value with SARS CoV-2 (WA1 strain) [5] is “reduced production; also recorded: significantly reduced; also recorded: attenuated”. In addition, in data set [6], the aqueous solubility result is recorded as “high”.
